Measurements published in US20220249463A1, “METHODS OF ALTERING CARDIAC REMODELING USING COMPOUNDS THAT PROMOTE GLUCOSE OXIDATION” (IMBRIA PHARMACEUTICALS, INC., priority 2019, published 2022).

Experiment: Stability of CV-8972 in aqueous solution at different concentrations and pH
Assay type: physicochemical
Experimental: The stability of CV-8972 was analyzed. Aqueous samples containing CV-8972 at different concentrations and pH were incubated for various periods and analyzed.
Form A of CV-8972 were analyzed for stability in aqueous solution. Aqueous samples containing CV-8972 at different concentrations and pH were incubated for various periods and analyzed.

[1] = 289-MBA-15-A 2 mg/mL pH 6 (Form B), 22 hrs, pH 6.7
[2] = 289-MBA-15-A 2 mg/mL pH 7 (Form B), 0 hrs, pH 6.5
[3] = 289-MBA-15-A 2 mg/mL pH 7 (Form B), 1 hrs, pH 6.6
[4] = 289-MBA-15-A 2 mg/mL pH 7 (Form B), 4 hrs, pH 6.5
[5] = 289-MBA-15-A 10 mg/mL pH 6 (Form B), 0 hrs, pH 6
[6] = 289-MBA-15-A 10 mg/mL pH 6 (Form B), 1 hrs, pH 6.1
[7] = 289-MBA-15-A 10 mg/mL pH 6 (Form B), 4 hrs, pH 6
[8] = 289-MBA-15-A 10 mg/mL pH 6 (Form B), 6 hrs, pH 5.9
[9] = 289-MBA-15-A 10 mg/mL pH 6 (Form B), 22 hrs, pH 5.9
[10] = 289-MBA-15-A 10 mg/mL pH 7 (Form B), 0 hrs, pH 7.4
[11] = 289-MBA-15-A 10 mg/mL pH 7 (Form B), 1 hrs, pH 7.4
[12] = 289-MBA-15-A 10 mg/mL pH 7 (Form B), 4 hrs, pH 7.4
[13] = 289-MBA-15-A 10 mg/mL pH 7 (Form B), 6 hrs, pH 7.3
[14] = Form A, aqueous, 4.2 mg/mL, Initial pH = 2.3, 0 hrs
[15] = Form A, aqueous, 4.2 mg/mL, Initial pH = 2.3, 1 hrs
[16] = Form A, aqueous, 4.2 mg/mL, Initial pH = 2.3, 2 hrs
[17] = Form A, aqueous, 4.2 mg/mL, Initial pH = 2.3, 6 hrs
[18] = Form A, aqueous, 12.5 mg/mL, Initial pH = 2.1, 0 hrs
[19] = Form A, aqueous, 12.5 mg/mL, Initial pH = 2.1, 1 hrs
[20] = Form A, aqueous, 12.5 mg/mL, Initial pH = 2.1, 2 hrs
[21] = Form A, aqueous, 12.5 mg/mL, Initial pH = 2.1, 6 hrs
[22] = Form A, aqueous, 21 mg/mL, Initial pH = 2.0, 0 hrs
[23] = Form A, aqueous, 21 mg/mL, Initial pH = 2.0, 1 hrs
[24] = Form A, aqueous, 21 mg/mL, Initial pH = 2.0, 2 hrs
[25] = Form A, aqueous, 21 mg/mL, Initial pH = 2.0, 6 hrs

COc1ccc(CN2CCN(CCOC(=O)c3cccnc3)CC2)c(OC)c1OC [CV-8972, 2-(4-(2,3,4-trimethoxybenzyl)piperazin-1-yl)ethyl nicotinate]
Retention Time 2.2 [1]: 7.72
Retention Time 2.6 [1]: 1.13
Retention Time 4.2 [1]: 0.86
Retention Time 4.7 [1]: 1.14
Retention Time 5.6 [1]: 89.15
Retention Time 2.2 [2]: 1.62
Retention Time 4.2 [2]: 0.9
Retention Time 5.6 [2]: 97.48
Decrease in purity of CV-8972 between time points [3]: 2.02
Retention Time 2.2 [3]: 3.16
Retention Time 4.2 [3]: 0.89
Retention Time 4.7 [3]: 0.49
Retention Time 5.6 [3]: 95.46
Decrease in purity of CV-8972 between time points [4]: 1.54
Retention Time 2.2 [4]: 4.27
Retention Time 2.6 [4]: 0.53
Retention Time 4.2 [4]: 0.66
Retention Time 4.7 [4]: 0.62
Retention Time 5.6 [4]: 93.92
Retention Time 2.2 [5]: 3.3
Retention Time 2.6 [5]: 0.6
Retention Time 4.2 [5]: 0.26
Retention Time 4.7 [5]: 0.48
Retention Time 5.6 [5]: 95.36
Decrease in purity of CV-8972 between time points [6]: 0.55
Retention Time 2.2 [6]: 3.76
Retention Time 2.6 [6]: 0.65
Retention Time 4.2 [6]: 0.25
Retention Time 4.7 [6]: 0.53
Retention Time 5.6 [6]: 94.81
Decrease in purity of CV-8972 between time points [7]: 0.12
Retention Time 2.2 [7]: 3.97
Retention Time 2.6 [7]: 0.59
Retention Time 4.2 [7]: 0.19
Retention Time 4.7 [7]: 0.56
Retention Time 5.6 [7]: 94.69
Decrease in purity of CV-8972 between time points [8]: 0.3
Retention Time 2.2 [8]: 4.3
Retention Time 2.6 [8]: 0.54
Retention Time 4.2 [8]: 0.17
Retention Time 4.7 [8]: 0.6
Retention Time 5.6 [8]: 94.39
Decrease in purity of CV-8972 between time points [9]: 0.46
Retention Time 2.2 [9]: 4.53
Retention Time 2.6 [9]: 0.69
Retention Time 4.2 [9]: 0.19
Retention Time 4.7 [9]: 0.65
Retention Time 5.6 [9]: 93.93
Retention Time 2.2 [10]: 6.2
Retention Time 2.6 [10]: 1.16
Retention Time 4.2 [10]: 0.27
Retention Time 4.7 [10]: 0.87
Retention Time 5.6 [10]: 91.5
Decrease in purity of CV-8972 between time points [11]: 5.32
Retention Time 2.2 [11]: 10.47
Retention Time 2.6 [11]: 1.65
Retention Time 4.2 [11]: 0.25
Retention Time 4.7 [11]: 1.44
Retention Time 5.6 [11]: 86.18
Decrease in purity of CV-8972 between time points [12]: 3.82
Retention Time 2.2 [12]: 13.64
Retention Time 2.6 [12]: 1.93
Retention Time 4.2 [12]: 0.19
Retention Time 4.7 [12]: 1.89
Retention Time 5.6 [12]: 82.36
Decrease in purity of CV-8972 between time points [13]: 2.99
Retention Time 2.2 [13]: 15.66
Retention Time 2.6 [13]: 2.57
Retention Time 4.2 [13]: 0.2
Retention Time 4.7 [13]: 0.2
Retention Time 5.6 [13]: 79.37
Retention Time 3.9 [14]: 5.35
Retention Time 5.4 [14]: 94.65
% change from t0 of RT 5.4 [15]: 1.41%
Retention Time 3.9 [15]: 4.02
Retention Time 5.4 [15]: 95.98
% change from t0 of RT 5.4 [16]: −3.66%
Amount of peak at retention time 1.9 [16]: 3.72
Retention Time 3.9 [16]: 5.09
Retention Time 5.4 [16]: 91.19
% change from t0 of RT 5.4 [17]: −10.21%
Amount of peak at retention time 1.9 [17]: 9.71
Retention Time 3.9 [17]: 5.3
Retention Time 5.4 [17]: 84.99
Retention Time 3.9 [18]: 1.79
Retention Time 5.4 [18]: 98.21
% change from t0 of RT 5.4 [19]: −1.02%
Amount of peak at retention time 1.9 [19]: 1.38
Retention Time 3.9 [19]: 1.41
Retention Time 5.4 [19]: 97.21
% change from t0 of RT 5.4 [20]: −2.35%
Amount of peak at retention time 1.9 [20]: 2.43
Retention Time 3.9 [20]: 1.67
Retention Time 5.4 [20]: 95.9
% change from t0 of RT 5.4 [21]: −8.79%
Retention Time 2.2 [21]: 1.04
Retention Time 3.9 [21]: 1.74
Retention Time 5.4 [21]: 89.58
Retention Time 3.9 [22]: 1.12
Retention Time 5.4 [22]: 98.88
% change from t0 of RT 5.4 [23]: −0.86%
Amount of peak at retention time 1.9 [23]: 1.03
Retention Time 3.9 [23]: 0.94
Retention Time 5.4 [23]: 98.03
% change from t0 of RT 5.4 [24]: −1.79%
Amount of peak at retention time 1.9 [24]: 1.9
Retention Time 3.9 [24]: 1
Retention Time 5.4 [24]: 97.11
% change from t0 of RT 5.4 [25]: −6.78%
Retention Time 2.2 [25]: 0.83
Retention Time 3.9 [25]: 0.96
Retention Time 5.4 [25]: 92.18
